Assay results from US8247211B2, “Glycopeptide antibiotics” (American Cyanamid Company, priority 2001, dated 2012).

Experiments:
Test in all cases: In vitro antibacterial evaluation: minimum inhibitory concentration (MIC), broth dilution method
Assay type in all cases: cell-based
Escherichia coli = details: for MIC Escherichia coli (ATCC 25922): strain ATCC 25922; for MIC Escherichia coli (GC 4559): strain GC 4559
Summary of the method: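 An MIC is reported for each organism as the least concentration giving inhibition, using broth dilution over 64-0.06 μg/mL with a 5×10^5 CFU/mL inoculum.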

Staphylococcus sp. = details: broth dilution, 18 hours at 35° C.
Summary of the method: (§1)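 Values are minimum inhibitory concentrations, meaning the smallest antibiotic concentration that stops growth of the organism. They come from broth dilution in Muller-Hinton II […] per NCCLS guidance (M7-A2), using 5×10^5 CFU/mL and concentrations from 64 to 0.06 μg/mL.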

Enterococcus sp. = tested on: Enterococcus sp.
Summary of the method: as §1

Streptococcus sp. = tested on: Streptococcus sp.
Summary of the method: as §1

[1] = broth dilution, inoculum 5×10^5 CFU/mL, 18 hours at 35° C.

Cyclo[glycyl-β-methylphenylalanyl-O-[4-O-[4,6-O-β-(carboxymethoxy)benzylidene]hexopyranosyl]hexonyranosyl]tyrosyl-3-(2-iminoimidazolidin-4-yl)seryl-3-(3-hexopyranosyl-2-iminoimidazolidin-4-yl)serylseryl] [Example 166]
8 µg/mL: MIC Staphylococcus aureus (ATCC 29213) (Staphylococcus sp.; 5×10^5 CFU/mL) | MIC Staphylococcus aureus (GC 1131) (Staphylococcus sp.; 5×10^5 CFU/mL) | MIC Staphylococcus aureus (GC 4541) (Staphylococcus sp.; 5×10^5 CFU/mL) | MIC Staphylococcus aureus (ATCC 29213) (Staphylococcus sp.; strain ATCC 29213) | MIC Staphylococcus aureus (GC 1131) (Staphylococcus sp.; strain GC 1131) | MIC Staphylococcus aureus (GC 4541) (Staphylococcus sp.; strain GC 4541)
4 µg/mL: MIC Coagulase Negative Staphylococcus (GC 4547) (Staphylococcus sp.; 5×10^5 CFU/mL) | MIC Coagulase Negative Staphylococcus (GC 4548) (Staphylococcus sp.; 5×10^5 CFU/mL) | MIC Coagulase Negative Staphylococcus (GC 4549) (Staphylococcus sp.; 5×10^5 CFU/mL) | MIC Coagulase Negative Staphylococcus (GC 6257) (Staphylococcus sp.; 5×10^5 CFU/mL) | MIC Staphylococcus aureus-SMITH (GC 4543) (Staphylococcus sp.; 5×10^5 CFU/mL) | MIC Staphylococcus aureus-SMITH (GC 4543) (Staphylococcus sp.; strain GC 4543) | MIC Coagulase Negative Staphylococcus (GC 4547) (Staphylococcus sp.; strain GC 4547) | MIC Coagulase Negative Staphylococcus (GC 4548) (Staphylococcus sp.; strain GC 4548) | MIC Coagulase Negative Staphylococcus (GC 4549) (Staphylococcus sp.; strain GC 4549) | MIC Coagulase Negative Staphylococcus (GC 6257) (Staphylococcus sp.; strain GC 6257)
1 µg/mL: MIC Streptococcus pneumoniae (ATCC 6301) (Streptococcus sp.; [1]) | MIC Streptococcus pneumoniae (GC 1894) (Streptococcus sp.; [1]) | MIC Streptococcus pneumoniae (ATCC 6301) (Streptococcus sp.; strain ATCC 6301) | MIC Streptococcus pneumoniae (GC 1894) (Streptococcus sp.; strain GC 1894)
>64 µg/mL: MIC Escherichia coli (ATCC 25922) (Escherichia coli) | MIC Escherichia coli (GC 4559) (Escherichia coli)
2 µg/mL: MIC Escherichi coli (GC 4560) (Escherichia coli; strain GC 4560)
32 µg/mL: MIC Enterococcus avium (GC 4558) (Enterococcus sp.; [1]) | MIC Enterococcus faecalis (ATCC 29212) (Enterococcus sp.; [1]) | MIC Enterococcus faecalis (GC 2242) (Enterococcus sp.; [1]) | MIC Enterococcus faecalis (GC 6189) (Enterococcus sp.; [1]) | MIC Enterococcus faecium (GC 2243) (Enterococcus sp.; [1]) | MIC Enterococcus faecium (GC 4556) (Enterococcus sp.; [1]) | MIC Enterococcus faecalis (ATCC 29212) (Enterococcus sp.; strain ATCC 29212) | MIC Enterococcus faecalis (GC 2242) (Enterococcus sp.; strain GC 2242) | MIC Enterococcus faecium (GC 2243) (Enterococcus sp.; strain GC 2243) | MIC Enterococcus faecium (GC 4556) (Enterococcus sp.; strain GC 4556) | MIC Enterococcus avium (GC 4558) (Enterococcus sp.; strain GC 4558) | MIC Enterococcus faecalis (GC 6189) (Enterococcus sp.; strain GC 6189)

Di-N-(4-tert-butylbenzyl)-cyclo[glycyl-β-methylphenylalanyl-O-(4-O-hexopyranosylhexopyranosyl)tyrosyl-3-(2-iminoimidazolidin-4-yl)seryl-3-(3-hexopyranosyl-2-iminoimidazolidin-4-yl)serylseryl] [Example 60a]
16 µg/mL: MIC Escherichia coli (GC 4560) (Escherichia coli; strain GC 4560)
128 µg/mL: MIC Enterococcus avium (GC 4558) (Enterococcus sp.; Enterococcus avium (GC 4558), broth dilution, 18 hours at 35° C.) | MIC Enterococcus faecalis (GC 4553) (Enterococcus sp.; Enterococcus faecalis (GC 4553), broth dilution, 18 hours at 35° C.) | MIC Enterococcus faecium (GC 4557) (Enterococcus sp.; Enterococcus faecium (GC 4557), broth dilution, 18 hours at 35° C.) | MIC Enterococcus faecalis (GC 4553) (Enterococcus sp.; strain GC 4553) | MIC Enterococcus faecium (GC 4557) (Enterococcus sp.; strain GC 4557) | MIC Enterococcus avium (GC 4558) (Enterococcus sp.; strain GC 4558) | MIC Streptococcus pneumoniae (GC 4565) (Streptococcus sp.; Streptococcus pneumoniae (GC 4565), broth dilution, 18 hours at 35° C.) | MIC Streptococcus pneumoniae (GC 4565) (Streptococcus sp.; strain GC 4565)
>128 µg/mL: MIC Escherichia coli (ATCC 25922) (Escherichia coli) | MIC Escherichia coli (GC 4559) (Escherichia coli) | MIC Coagulase Negative Staphylococcus (GC 4547) (Staphylococcus sp.) | MIC Coagulase Negative Staphylococcus (GC 4548) (Staphylococcus sp.) | MIC Coagulase Negative Staphylococcus (GC 4549) (Staphylococcus sp.) | MIC Coagulase Negative Staphylococcus (GC 4551) (Staphylococcus sp.) | MIC Coagulase Negative Staphylococcus (GC 6257) (Staphylococcus sp.) | MIC Staphylococcus aureus (ATCC 29213) (Staphylococcus sp.) | MIC Staphylococcus aureus (GC 1131) (Staphylococcus sp.) | MIC Staphylococcus aureus (GC 3051) (Staphylococcus sp.) | MIC Staphylococcus aureus (GC 3053) (Staphylococcus sp.) | MIC Staphylococcus aureus (GC 4541) (Staphylococcus sp.) | MIC Staphylococcus aureus (GC 4542) (Staphylococcus sp.) | MIC Staphylococcus aureus (GC 4544) (Staphylococcus sp.) | MIC Staphylococcus aureus (GC 4545) (Staphylococcus sp.) | MIC Staphylococcus aureus SMITH (GC 4543) (Staphylococcus sp.) | MIC Staphylococcus haemolyticus (GC 4546) (Staphylococcus sp.) | MIC Staphylococcus aureus (ATCC 29213) (Staphylococcus sp.; strain ATCC 29213) | MIC Staphylococcus aureus (GC 1131) (Staphylococcus sp.; strain GC 1131) | MIC Staphylococcus aureus (GC 3051) (Staphylococcus sp.; strain GC 3051) | MIC Staphylococcus aureus (GC 3053) (Staphylococcus sp.; strain GC 3053) | MIC Staphylococcus aureus (GC 4541) (Staphylococcus sp.; strain GC 4541) | MIC Staphylococcus aureus (GC 4542) (Staphylococcus sp.; strain GC 4542) | MIC Staphylococcus aureus (GC 4544) (Staphylococcus sp.; strain GC 4544) | MIC Staphylococcus aureus (GC 4545) (Staphylococcus sp.; strain GC 4545) | MIC Staphylococcus haemolyticus (GC 4546) (Staphylococcus sp.; strain GC 4546) | MIC Coagulase Negative Staphylococcus (GC 4547) (Staphylococcus sp.; strain GC 4547) | MIC Coagulase Negative Staphylococcus (GC 4548) (Staphylococcus sp.; strain GC 4548) | MIC Coagulase Negative Staphylococcus (GC 4549) (Staphylococcus sp.; strain GC 4549) | MIC Coagulase Negative Staphylococcus (GC 4551) (Staphylococcus sp.; strain GC 4551) | MIC Coagulase Negative Staphylococcus (GC 6257) (Staphylococcus sp.; strain GC 6257) | MIC Staphylococcus aureus-SMITH (GC 4543) (Staphylococcus sp.; strain SMITH GC 4543) | MIC Enterococcus faecalis (ATCC 29212) (Enterococcus sp.; Enterococcus faecalis (ATCC 29212), broth dilution, 18 hours at 35° C.) | MIC Enterococcus faecalis (GC 2242) (Enterococcus sp.; Enterococcus faecalis (GC 2242), broth dilution, 18 hours at 35° C.) | MIC Enterococcus faecalis (GC 2691) (Enterococcus sp.; Enterococcus faecalis (GC 2691), broth dilution, 18 hours at 35° C.) | MIC Enterococcus faecalis (GC 3059) (Enterococcus sp.; Enterococcus faecalis (GC 3059), broth dilution, 18 hours at 35° C.) | MIC Enterococcus faecalis (GC 4552) (Enterococcus sp.; Enterococcus faecalis (GC 4552), broth dilution, 18 hours at 35° C.) | MIC Enterococcus faecalis (GC 4554) (Enterococcus sp.; Enterococcus faecalis (GC 4554), broth dilution, 18 hours at 35° C.) | MIC Enterococcus faecalis (GC 6189) (Enterococcus sp.; Enterococcus faecalis (GC 6189), broth dilution, 18 hours at 35° C.) | MIC Enterococcus faecium (GC 2243) (Enterococcus sp.; Enterococcus faecium (GC 2243), broth dilution, 18 hours at 35° C.) | MIC Enterococcus faecium (GC 4556) (Enterococcus sp.; Enterococcus faecium (GC 4556), broth dilution, 18 hours at 35° C.) | MIC Enterococcus faecalis (ATCC 29212) (Enterococcus sp.; strain ATCC 29212) | MIC Enterococcus faecalis (GC 2242) (Enterococcus sp.; strain GC 2242) | MIC Enterococcus faecium (GC 2243) (Enterococcus sp.; strain GC 2243) | MIC Enterococcus faecalis (GC 2691) (Enterococcus sp.; strain GC 2691) | MIC Enterococcus faecalis (GC 3059) (Enterococcus sp.; strain GC 3059) | MIC Enterococcus faecalis (GC 4552) (Enterococcus sp.; strain GC 4552) | MIC Enterococcus faecalis (GC 4554) (Enterococcus sp.; strain GC 4554) | MIC Enterococcus faecium (GC 4556) (Enterococcus sp.; strain GC 4556) | MIC Enterococcus faecalis (GC 6189) (Enterococcus sp.; strain GC 6189) | MIC Streptococcus agalactiae (GC 4564) (Streptococcus sp.; Streptococcus agalactiae (GC 4564), broth dilution, 18 hours at 35° C.) | MIC Streptococcus pneumoniae (ATCC 6301) (Streptococcus sp.; Streptococcus pneumoniae (ATCC 6301), broth dilution, 18 hours at 35° C.) | MIC Streptococcus pyogenes (GC 4563) (Streptococcus sp.; Streptococcus pyogenes (GC 4563), broth dilution, 18 hours at 35° C.) | MIC Streptococcus pneumoniae (ATCC 6301) (Streptococcus sp.; strain ATCC 6301) | MIC Streptococcus pyogenes (GC 4563) (Streptococcus sp.; strain GC 4563) | MIC Streptococcus agalactiae (GC 4564) (Streptococcus sp.; strain GC 4564)
64 µg/mL: MIC Streptococcus pneumoniae (GC 1894) (Streptococcus sp.; Streptococcus pneumoniae (GC 1894), broth dilution, 18 hours at 35° C.) | MIC Streptococcus pneumoniae (GC 1894) (Streptococcus sp.; strain GC 1894)
